Series [1] relates to Rat hepatocytes. Kind of series: Rat hepatocyte Clint. To be noted: for RH: rat hepatocytes; for Hepatocytes Rat: Table 4.
Series [2] addresses T1, WT c-MET (Homo sapiens, UniProt P08581). It is filed as biochemical. The following applies: LLE = pIC50 – log D.
Series [3] concerns the target T1, WT c-MET. Type of series: binding. To be noted: Table 1; LLE = pKd – log D.
Series [4] can be described thus: Rat plasma pharmacokinetics. The following applies: male, Han Wistar, iv, 0.5 mg/kg.
The test system of series [5] is Human hepatocytes. Kind of series: Human hepatocyte Clint. The following applies: Table 4.
Series [6] can be described thus: Human liver microsome Clint. For orientation: Liver microsomes are a subcellular fraction often used to study metabolism.
The mark [7] stands for this setting: Table 3, human liver microsomes.

Where two headings read alike, the source gives them in different places. A value given as a limit tells only on which side of the number the result lay.

Usually clearance stands for the rate of elimination divided by the concentration. Read a low clearance as a low capacity for elimination.

T1 sequence (P08581 25-1390): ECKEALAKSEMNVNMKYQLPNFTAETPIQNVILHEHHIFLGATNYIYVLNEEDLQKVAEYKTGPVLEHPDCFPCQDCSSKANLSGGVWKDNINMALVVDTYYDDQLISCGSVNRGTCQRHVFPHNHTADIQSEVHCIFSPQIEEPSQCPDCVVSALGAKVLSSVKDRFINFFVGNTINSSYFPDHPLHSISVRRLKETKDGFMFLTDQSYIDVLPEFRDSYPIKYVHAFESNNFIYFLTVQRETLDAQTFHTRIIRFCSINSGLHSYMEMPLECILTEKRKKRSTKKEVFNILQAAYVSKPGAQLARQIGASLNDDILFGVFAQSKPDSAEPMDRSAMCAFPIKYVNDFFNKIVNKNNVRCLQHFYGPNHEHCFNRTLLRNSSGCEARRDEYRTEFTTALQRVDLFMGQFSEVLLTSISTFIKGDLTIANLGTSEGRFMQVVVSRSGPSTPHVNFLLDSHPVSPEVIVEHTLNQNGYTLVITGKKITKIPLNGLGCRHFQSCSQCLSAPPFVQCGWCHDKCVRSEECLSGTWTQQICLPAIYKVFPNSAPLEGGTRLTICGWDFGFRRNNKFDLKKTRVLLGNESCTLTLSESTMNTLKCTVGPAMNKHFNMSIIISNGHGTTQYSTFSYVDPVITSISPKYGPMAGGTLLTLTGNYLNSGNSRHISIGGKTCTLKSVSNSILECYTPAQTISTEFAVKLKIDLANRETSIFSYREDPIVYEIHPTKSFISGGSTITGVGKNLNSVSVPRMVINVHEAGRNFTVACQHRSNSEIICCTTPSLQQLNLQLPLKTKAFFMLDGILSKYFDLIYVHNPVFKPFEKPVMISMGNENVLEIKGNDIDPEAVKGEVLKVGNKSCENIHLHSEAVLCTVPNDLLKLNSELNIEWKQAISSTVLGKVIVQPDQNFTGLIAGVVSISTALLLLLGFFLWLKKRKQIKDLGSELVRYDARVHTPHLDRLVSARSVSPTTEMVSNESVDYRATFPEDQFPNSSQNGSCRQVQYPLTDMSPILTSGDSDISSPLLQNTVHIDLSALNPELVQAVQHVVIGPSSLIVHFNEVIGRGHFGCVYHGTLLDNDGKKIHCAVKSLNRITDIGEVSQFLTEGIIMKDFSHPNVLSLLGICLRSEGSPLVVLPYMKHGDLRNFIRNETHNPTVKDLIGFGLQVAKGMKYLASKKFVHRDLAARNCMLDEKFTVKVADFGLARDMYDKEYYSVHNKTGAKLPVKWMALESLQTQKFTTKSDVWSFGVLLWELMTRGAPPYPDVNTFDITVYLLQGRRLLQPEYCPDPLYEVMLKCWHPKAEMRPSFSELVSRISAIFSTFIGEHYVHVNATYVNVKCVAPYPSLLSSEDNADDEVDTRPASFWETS

As to `CC(c1ccccc1)n1cc(-c2cc(F)cc3cn[nH]c23)c(=O)[nH]c1=O` (stereo not drawn) [Compound 21, 5-(5-Fluoro-1H-indazol-7-yl)-1-(1-phenylethyl)pyrimidine-2,4(1H,3H)-dione], in series [1] (Table 2), the RH worked out at 14.0 μL/min/10^6 cells. In addition, in series [2] (Table 2), the “ADP-Glo assay LLE WT” value is reported as 3.9.
`C#Cc1n[nH]c2c(-c3cn([C@@H](C)c4ccccn4)c(=O)[nH]c3=O)cc(F)cc12` [Compound 32, (S)-5-(3-Ethynyl-5-fluoro-1H-indazol-7-yl)-1-(1-(pyridin-2-yl)ethyl)pyrimidine-2,4(1H,3H)-dione] displayed an RH in series [1] (Table 3) of 6.07 μL/min/10^6 cells. The “ADP-Glo assay LLE WT” value in series [2] (Table 3) turned out to be 5.1.
In turn, `CC(c1ccccc1)n1cc(-c2cccc3cn[nH]c23)c(=O)[nH]c1=O` (stereo not drawn) [Compound 15, 5-(1H-Indazol-7-yl)-1-(1-phenylethyl)pyrimidine-2,4(1H,3H)-dione] gave an RH in series [1] (Table 1) of 46.1 μL/min/10^6 cells. In series [2] (Table 2), the “ADP-Glo assay LLE WT” value stood at 3.5. Further, the “SPR assay LLE WT” value in series [3] is reported as 4.2.
As to `CC(c1cccc(-c2cn[nH]c2)c1)n1cc(-c2cc(F)cc(F)c2)c(=O)[nH]c1=O` (stereo not drawn) [Compound 9, 1-(1-(3-(1H-Pyrazol-4-yl)phenyl)ethyl)-5-(3,5-difluorophenyl)pyrimidine-2,4(1H,3H)-dione], the RH in series [1] (Table 1) worked out at 22.3 μL/min/10^6 cells. In series [3], the “SPR assay LLE WT” value is recorded as 2.7.
Turning to `Cc1n[nH]c2c(-c3cn(C(C)c4ccccc4)c(=O)[nH]c3=O)cccc12` (stereo not drawn) [Compound 18, 5-(3-Methyl-1H-indazol-7-yl)-1-(1-phenylethyl)pyrimidine-2,4(1H,3H)-dione], the RH in series [1] (Table 2) stood at 37.0 μL/min/10^6 cells. The “ADP-Glo assay LLE WT” value in series [2] (Table 2) was found to be 3.6.
As to `CC(c1ccccc1)n1cc(-c2cccc3c(F)n[nH]c23)c(=O)[nH]c1=O` (stereo not drawn) [Compound 17, 5-(3-Fluoro-1H-indazol-7-yl)-1-(1-phenylethyl)pyrimidine-2,4(1H,3H)-dione], in series [1] (Table 2), the RH came out at 49.4 μL/min/10^6 cells. In addition, the “ADP-Glo assay LLE WT” value in series [2] (Table 2) is given as 3.1.
For `C[C@@H](c1ccc(F)cc1)n1cc(-c2cc(F)cc3c(C#N)n[nH]c23)c(=O)[nH]c1=O` [Compound 25, (S)-5-Fluoro-7-(1-(1-(4-fluorophenyl)ethyl)-2,4-dioxo-1,2,3,4-tetrahydropyrimidin-5-yl)-1H-indazole-3-carbonitrile], in series [1] (Table 3), the RH is 5.13 μL/min/10^6 cells. Moreover, in series [1], the “Hepatocytes Rat” value is reported as 5.13 μL/min/10^6 cells. For the same compound, the “ADP-Glo assay LLE WT” value in series [2] (Table 3) amounted to 3.8. Also, in series [4], the clearance worked out at 3 mL/min/kg. In addition, in series [5], the “Hepatocytes Human” value is on record as 2.48 μL/min/10^6 cells.
`CC(c1cccc(Cl)c1)n1cc(-c2cc(F)cc(F)c2)c(=O)[nH]c1=O` (stereo not drawn) [Compound 7, 1-(1-(3-Chlorophenyl)ethyl)-5-(3,5-difluorophenyl)pyrimidine-2,4(1H,3H)-dione] returned an RH in series [1] (Table 1) of 177 μL/min/10^6 cells. For the same compound, the “SPR assay LLE WT” value in series [3] amounted to 2.2.
On to `CC(c1ccccn1)n1cc(-c2cc(F)cc3c(C#N)n[nH]c23)c(=O)[nH]c1=O` (stereo not drawn) [Compound 23, 7-(2,4-Dioxo-1-(1-(pyridin-2-yl)ethyl)-1,2,3,4-tetrahydropyrimidin-5-yl)-5-fluoro-1H-indazole-3-carbonitrile], for which the RH in series [1] (Table 3) worked out at 3.08 μL/min/10^6 cells. Moreover, the “ADP-Glo assay LLE WT” value in series [2] (Table 3) came out at 3.8.
Take `CC(c1ccccc1)n1cc(-c2ncccn2)c(=O)[nH]c1=O` (stereo not drawn) [Compound 13, 1′-(1-Phenylethyl)-[2,5′-bipyrimidine]-2′,4′(1′H,3′H)-dione]: in series [1] (Table 1), the RH turned out to be 4.67 μL/min/10^6 cells.
For `CC(c1ccccc1)n1cc(-c2ccccn2)c(=O)[nH]c1=O` (stereo not drawn) [Compound 12, 1-(1-Phenylethyl)-5-(pyridin-2-yl)pyrimidine-2,4(1H,3H)-dione], the RH in series [1] (Table 1) was 300 μL/min/10^6 cells. In addition, the “SPR assay LLE WT” value in series [3] was found to be 3.2.
The corresponding values for `O=c1[nH]c(=O)n(Cc2ccccc2)cc1-c1cc(F)cc(F)c1` [Compound 4, 1-Benzyl-5-(3,5-difluorophenyl)pyrimidine-2,4(1H,3H)-dione] are 76.7 μL/min/10^6 cells and <1.0/<1.0.
In turn, `C[C@@H](c1ccccc1)n1cc(-c2cc(F)cc(F)c2)c(=O)[nH]c1=O` [Compound 3, (S)-5-(3,5-Difluorophenyl)-1-(1-phenylethyl)pyrimidine-2,4(1H,3H)-dione] yielded an RH in series [1] (Table 1) of 133 μL/min/10^6 cells. In series [3], the “SPR assay LLE WT” value is on record as 2.9.
Regarding `CC(c1ccccc1)n1cc(-c2ccc3[nH]ccc3c2)c(=O)[nH]c1=O` (stereo not drawn) [Compound 14, 5-(1H-Indol-5-yl)-1-(1-phenylethyl)pyrimidine-2,4(1H,3H)-dione], the RH in series [1] (Table 1) worked out at 217 μL/min/10^6 cells. Further, the “SPR assay LLE WT” value in series [3] was 3.4/3.4.
Regarding `C#Cc1n[nH]c2c(-c3cn(C(C)c4ccccn4)c(=O)[nH]c3=O)cc(F)cc12` (stereo not drawn) [Compound 31, 5-(3-Ethynyl-5-fluoro-1H-indazol-7-yl)-1-(1-(pyridin-2-yl)ethyl)pyrimidine-2,4(1H,3H)-dione], the HLM in series [6] (setting [7]) and in series [6] (Table 4) was below 3.00 µL/min/mg in each case. Further, the RH in series [1] (Table 3) was 4.81 μL/min/10^6 cells. Also, the “Hepatocytes Rat” value in series [1] is reported as 4.81 μL/min/10^6 cells. In addition, in series [2] (Table 3), the “ADP-Glo assay LLE WT” value came to 4.8. In series [4], this compound had a clearance of 13 mL/min/kg. Further, in series [5], the “Hepatocytes Human” value is listed as 1.29 μL/min/10^6 cells.
`CC(c1ccccc1)n1cc(-c2c(F)ccc3cn[nH]c23)c(=O)[nH]c1=O` (stereo not drawn) [Compound 20, 5-(6-Fluoro-1H-indazol-7-yl)-1-(1-phenylethyl)pyrimidine-2,4(1H,3H)-dione]: in series [1] (Table 2), the RH is 28.3 μL/min/10^6 cells. In addition, the “ADP-Glo assay LLE WT” value in series [2] (Table 2) is recorded as 3.2.
The compound `CC(c1cccc(-c2c[nH]cn2)c1)n1cc(-c2cc(F)cc(F)c2)c(=O)[nH]c1=O` (stereo not drawn) [Compound 10, 1-(1-(3-(1H-Imidazol-5-yl)phenyl)ethyl)-5-(3,5-difluorophenyl)pyrimidine-2,4(1H,3H)-dione] registered an RH in series [1] (Table 1) of 6.03 μL/min/10^6 cells. In addition, in series [3], the “SPR assay LLE WT” value was 3.1.
Turning to `CC(c1ccc(F)cc1)n1cc(-c2cc(F)cc3cn[nH]c23)c(=O)[nH]c1=O` (stereo not drawn) [Compound 26, 5-(5-Fluoro-1H-indazol-7-yl)-1-(1-(4-fluorophenyl)ethyl)pyrimidine-2,4(1H,3H)-dione], in series [1] (Table 3), the RH is 11.9 μL/min/10^6 cells. The “ADP-Glo assay LLE WT” value in series [2] (Table 3) is on record as 3.5.
`CC(c1cccc(-c2c[nH]cn2)c1)n1cc(-c2cccc3cn[nH]c23)c(=O)[nH]c1=O` (stereo not drawn) [Compound 16, 1-(1-(3-(1H-Imidazol-5-yl)phenyl)ethyl)-5-(1H-indazol-7-yl)pyrimidine-2,4(1H,3H)-dione] returned an RH in series [1] (Table 1) of 5.84 μL/min/10^6 cells. The “SPR assay LLE WT” value in series [3] worked out at 4.1.
With `C#Cc1n[nH]c2c(-c3cn([C@@H](C)c4ccccc4)c(=O)[nH]c3=O)cc(F)cc12` [Compound 30, (S)-5-(3-Ethynyl-5-fluoro-1H-indazol-7-yl)-1-(1-phenylethyl)pyrimidine-2,4(1H,3H)-dione], in series [1] (Table 3), the RH was 15.0 μL/min/10^6 cells.
Take `C#Cc1n[nH]c2c(-c3cn(C(C)c4ccccc4)c(=O)[nH]c3=O)cc(F)cc12` (stereo not drawn) [Compound 29, 5-(3-Ethynyl-5-fluoro-1H-indazol-7-yl)-1-(1-phenylethyl)pyrimidine-2,4(1H,3H)-dione]: the HLM in series [6] (setting [7]) and in series [6] (Table 4) was 12.2 µL/min/mg throughout. In addition, the RH in series [1] (Table 3) is 5.99 μL/min/10^6 cells. Moreover, the “Hepatocytes Rat” value in series [1] is 5.99 μL/min/10^6 cells. The compound also had a clearance in series [4] of 60 mL/min/kg. Besides, the “Hepatocytes Human” value in series [5] was 4.27 μL/min/10^6 cells.
Compound `CC(c1ccccc1Cl)n1cc(-c2cc(F)cc(F)c2)c(=O)[nH]c1=O` (stereo not drawn) [Compound 5, 1-(1-(2-Chlorophenyl)ethyl)-5-(3,5-difluorophenyl)pyrimidine-2,4(1H,3H)-dione] showed an RH in series [1] (Table 1) of 227 μL/min/10^6 cells. Moreover, in series [3], the “SPR assay LLE WT” value is 0.82.
The corresponding values for `CC(c1cccc(-c2cc[nH]n2)c1)n1cc(-c2cc(F)cc(F)c2)c(=O)[nH]c1=O` (stereo not drawn) [Compound 8, 1-(1-(3-(1H-Pyrazol-3-yl)phenyl)ethyl)-5-(3,5-difluorophenyl)pyrimidine-2,4(1H,3H)-dione] are 24.7 μL/min/10^6 cells and 2.1.
In series [1] (Table 2), `CC(c1ccccc1)n1cc(-c2cc(F)cc3c(C#N)n[nH]c23)c(=O)[nH]c1=O` (stereo not drawn) [Compound 22, 7-(2,4-Dioxo-1-(1-phenylethyl)-1,2,3,4-tetrahydropyrimidin-5-yl)-5-fluoro-1H-indazole-3-carbonitrile] yielded an RH of 51.4 μL/min/10^6 cells. Further, the “ADP-Glo assay LLE WT” value in series [2] (Table 2) stood at 3.8.
For the compound `CC(c1ccccc1)n1cc(-c2cccc3c(C#N)n[nH]c23)c(=O)[nH]c1=O` (stereo not drawn) [Compound 19, 7-(2,4-Dioxo-1-(1-phenylethyl)-1,2,3,4-tetrahydropyrimidin-5-yl)-1H-indazole-3-carbonitrile], the RH in series [1] (Table 2) was 41.4 μL/min/10^6 cells. The “ADP-Glo assay LLE WT” value in series [2] (Table 2) was 3.4.
Regarding `C#Cc1n[nH]c2c(-c3cn(C(C)c4ccccc4)c(=O)[nH]c3=O)cccc12` (stereo not drawn) [Compound 28, 5-(3-Ethynyl-1H-indazol-7-yl)-1-(1-phenylethyl)pyrimidine-2,4(1H,3H)-dione], the RH in series [1] (Table 3) stood at 9.10 μL/min/10^6 cells. Moreover, in series [2] (Table 3), the “ADP-Glo assay LLE WT” value is reported as 4.2.
In series [1] (Table 1), `CC(c1ccccc1)n1cc(-c2ccccc2)c(=O)[nH]c1=O` (stereo not drawn) [Compound 11, 5-Phenyl-1-(1-phenylethyl)pyrimidine-2,4(1H,3H)-dione] yielded an RH of 185 μL/min/10^6 cells.
Compound `CC(c1ccc(F)cc1)n1cc(-c2cc(F)cc3c(C#N)n[nH]c23)c(=O)[nH]c1=O` (stereo not drawn) [Compound 24, 5-Fluoro-7-(1-(1-(4-fluorophenyl)ethyl)-2,4-dioxo-1,2,3,4-tetrahydropyrimidin-5-yl)-1H-indazole-3-carbonitrile] had an RH in series [1] (Table 3) of 4.40 μL/min/10^6 cells. Also, the “ADP-Glo assay LLE WT” value in series [2] (Table 3) is given as 3.4.

Values taken from PMC10350928 (Journal of Medicinal Chemistry, 2023).
